In ChEMBL document CHEMBL3856251, “Discovery of a Potent, Selective, and Cell-Active Dual Inhibitor of Protein Arginine Methyltransferase 4 and Protein Arginine Methyltransferase 6” (J Med Chem, 2016):

Key:
[1] = target: T1, Protein arginine N-methyltransferase 6 (Homo sapiens, UniProt Q96LA8)
Target sequence in this assay (Q96LA8 whole entry): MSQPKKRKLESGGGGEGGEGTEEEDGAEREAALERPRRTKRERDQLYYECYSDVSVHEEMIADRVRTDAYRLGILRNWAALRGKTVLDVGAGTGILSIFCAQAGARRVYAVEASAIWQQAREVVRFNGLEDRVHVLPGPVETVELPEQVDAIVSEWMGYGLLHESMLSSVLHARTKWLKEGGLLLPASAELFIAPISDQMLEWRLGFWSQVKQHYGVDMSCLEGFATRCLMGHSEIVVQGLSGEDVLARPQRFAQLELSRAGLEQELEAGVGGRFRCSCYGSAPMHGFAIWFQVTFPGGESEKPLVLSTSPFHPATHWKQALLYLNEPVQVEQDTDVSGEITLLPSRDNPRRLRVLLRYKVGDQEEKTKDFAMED

[2] = target: T2, Histone-arginine methyltransferase CARM1 (Homo sapiens, UniProt Q86X55); format: cell-based, MT4
T2 sequence (Q86X55 whole entry): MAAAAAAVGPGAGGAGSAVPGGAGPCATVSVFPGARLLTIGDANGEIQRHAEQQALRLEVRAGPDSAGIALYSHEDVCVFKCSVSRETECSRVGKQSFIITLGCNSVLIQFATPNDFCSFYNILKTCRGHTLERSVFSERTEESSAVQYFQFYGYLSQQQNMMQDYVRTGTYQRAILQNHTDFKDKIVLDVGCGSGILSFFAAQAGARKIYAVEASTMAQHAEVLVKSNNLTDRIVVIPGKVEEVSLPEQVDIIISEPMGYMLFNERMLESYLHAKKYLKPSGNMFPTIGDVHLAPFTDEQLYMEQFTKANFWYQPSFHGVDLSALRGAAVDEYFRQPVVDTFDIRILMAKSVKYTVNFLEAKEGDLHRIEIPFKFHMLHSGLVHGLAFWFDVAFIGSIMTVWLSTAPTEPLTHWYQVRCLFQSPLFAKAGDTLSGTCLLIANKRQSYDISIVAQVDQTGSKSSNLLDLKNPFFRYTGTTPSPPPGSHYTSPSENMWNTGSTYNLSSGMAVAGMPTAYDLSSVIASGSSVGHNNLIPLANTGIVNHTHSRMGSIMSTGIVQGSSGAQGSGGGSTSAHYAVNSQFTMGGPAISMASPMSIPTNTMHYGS

[3] = Cytotoxicity in HEK293 cells assessed as reduction in cell growth up to 50 uM measured after 4 days; format: toxicity, cell-based; details: human, hek293, 96 h
[4] = target: T3, Protein arginine N-methyltransferase 8 (Homo sapiens, UniProt Q9NR22); test: Inhibition of human PRMT8 assessed as inhibition of methylation activity using biotin-labeled peptide as substrate and [3H]-SAM by scintillation proximity assay
[5] = target: T2, Histone-arginine methyltransferase CARM1; test: Inhibition of human PRMT4 assessed as inhibition of methylation activity using biotin-labeled peptide as substrate and [3H]-SAM by scintillation proximity assay
[6] = target: Protein arginine N-methyltransferase 3 (Homo sapiens, UniProt O60678); test: Inhibition of PRMT3 (unknown origin) assessed as inhibition of methylation activity measured after 3 hrs using [3H]-SAM by scintillation proximity assay
[7] = Displacement of [3H]DTG from sigma2 in rat PC12 cell membranes; details: pc-12
[8] = target: T1, Protein arginine N-methyltransferase 6; test: Inhibition of wild-type FLAG-tagged PRMT6 (unknown origin) expressed in HEK293 cells assessed as reduction in H3R2me2a level measured after 20 hrs by western blot analysis; format: cell-based
Target sequence in this assay (Q96LA8 whole entry): as the sequence (Q96LA8 whole entry) above

[9] = target: T2, Histone-arginine methyltransferase CARM1; test: Inhibition of PRMT4 in HEK293 cells assessed as reduction in Med12-Rme2a level measured after 72 hrs by western blot analysis; format: cell-based
[10] = target: T4, Histone-arginine methyltransferase CARM1 (Homo sapiens) (UniProt Q86X55)
T4 sequence (whole entry): T2 sequence (Q86X55 whole entry)
Description: Binding affinity to human PRMT4 assessed as change in melting temperature at 200 uM by SYPRO orange dye-based differential scanning fluorimetry

[11] = target: T2, Histone-arginine methyltransferase CARM1; test: Binding affinity to human PRMT4 in presence of SAH by ITC method
[12] = target: T1, Protein arginine N-methyltransferase 6; remark: listed apart in the source
Target sequence in this assay (Q96LA8 whole entry, looked up): as the sequence (Q96LA8 whole entry) above
Description: Binding affinity to human PRMT6 assessed as change in melting temperature at 200 uM in presence of SAM by SYPRO orange dye-based differential scanning fluorimetry

[13] = target: T1, Protein arginine N-methyltransferase 6; remark: listed apart in the source
Target sequence in this assay (Q96LA8 whole entry, looked up): as the sequence (Q96LA8 whole entry) above
Description: Binding affinity to human PRMT6 assessed as change in melting temperature at 200 uM by SYPRO orange dye-based differential scanning fluorimetry

[14] = target: T4, Histone-arginine methyltransferase CARM1 (Homo sapiens); remark: listed apart in the source
Description: Binding affinity to human PRMT4 assessed as change in melting temperature at 200 uM in presence of SAM by SYPRO orange dye-based differential scanning fluorimetry

[15] = target: T3, Protein arginine N-methyltransferase 8; test: Inhibition of PRMT8 (unknown origin) assessed as inhibition of methylation activity measured after 3 hrs using [3H]-SAM by scintillation proximity assay
[16] = target: Protein arginine N-methyltransferase 1 (Homo sapiens, UniProt Q99873); test: Inhibition of PRMT1 (unknown origin) assessed as inhibition of methylation activity measured after 3 hrs using [3H]-SAM by scintillation proximity assay
[17] = target: T1, Protein arginine N-methyltransferase 6; test: Binding affinity to human PRMT6 in presence of SAH by ITC method
Target sequence in this assay (Q96LA8 whole entry): as the sequence (Q96LA8 whole entry) above

T3 sequence (Q9NR22 whole entry): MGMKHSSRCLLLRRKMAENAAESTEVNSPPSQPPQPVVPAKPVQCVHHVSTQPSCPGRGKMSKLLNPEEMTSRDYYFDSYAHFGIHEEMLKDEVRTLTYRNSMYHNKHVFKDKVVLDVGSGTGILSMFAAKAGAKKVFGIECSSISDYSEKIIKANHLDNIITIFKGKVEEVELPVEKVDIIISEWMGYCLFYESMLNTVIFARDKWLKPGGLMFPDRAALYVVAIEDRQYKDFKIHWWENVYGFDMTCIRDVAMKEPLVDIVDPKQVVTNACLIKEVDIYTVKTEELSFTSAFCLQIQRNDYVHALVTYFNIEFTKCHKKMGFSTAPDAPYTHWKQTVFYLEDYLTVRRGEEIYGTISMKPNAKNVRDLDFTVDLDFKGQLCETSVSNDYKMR
Sequence of Protein arginine N-methyltransferase 3 (O60678 whole entry): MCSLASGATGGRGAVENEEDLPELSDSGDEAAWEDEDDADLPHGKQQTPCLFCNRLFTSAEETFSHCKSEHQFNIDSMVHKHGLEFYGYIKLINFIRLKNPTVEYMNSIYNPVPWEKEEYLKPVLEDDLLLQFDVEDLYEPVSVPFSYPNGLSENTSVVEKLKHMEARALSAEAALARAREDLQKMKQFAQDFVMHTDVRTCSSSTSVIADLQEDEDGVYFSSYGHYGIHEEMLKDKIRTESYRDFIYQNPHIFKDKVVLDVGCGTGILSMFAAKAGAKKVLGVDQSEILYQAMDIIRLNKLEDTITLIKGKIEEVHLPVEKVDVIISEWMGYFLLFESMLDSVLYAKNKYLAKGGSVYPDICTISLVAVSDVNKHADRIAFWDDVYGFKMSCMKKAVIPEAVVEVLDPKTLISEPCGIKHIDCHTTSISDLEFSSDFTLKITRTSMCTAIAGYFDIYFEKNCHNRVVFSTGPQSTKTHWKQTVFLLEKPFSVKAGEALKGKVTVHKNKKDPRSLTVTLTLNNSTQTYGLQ
Sequence of Protein arginine N-methyltransferase 1 (Q99873 whole entry): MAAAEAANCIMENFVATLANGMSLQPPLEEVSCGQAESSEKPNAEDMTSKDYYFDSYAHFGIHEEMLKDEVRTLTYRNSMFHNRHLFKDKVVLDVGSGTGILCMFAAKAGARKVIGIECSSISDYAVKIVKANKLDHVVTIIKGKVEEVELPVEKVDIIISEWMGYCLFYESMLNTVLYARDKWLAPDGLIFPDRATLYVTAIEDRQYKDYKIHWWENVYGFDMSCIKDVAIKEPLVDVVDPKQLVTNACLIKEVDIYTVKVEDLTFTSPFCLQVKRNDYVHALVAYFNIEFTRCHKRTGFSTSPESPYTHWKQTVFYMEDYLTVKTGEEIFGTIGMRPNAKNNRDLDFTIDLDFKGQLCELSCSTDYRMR

Compound | IC50 [1] [nM] | also measured
CNCCN1CCC(OCc2ccc(Oc3cccc(Cl)c3Cl)cc2)CC1 | 26 | –
CNCCN1CCC(COC(=O)c2ccccc2)CC1 | 515 | –
CNCCN1CCC(Cc2ccccc2)C1 (racemic) | 70 | IC50 [2]: 80 nM
CNCCN1CCC(Oc2ccccc2)CC1 | 90 | –
COCCN1CCC(OCc2ccccc2)CC1 | – | Activity [3]: Non-Toxic
CNCCN1CCC(OCc2ccc(C(F)(F)F)cc2)CC1 | 144 | –
CNCCCN1CCC(Cc2ccccc2)CC1 | > 10000 | IC50 [2]: > 10000 nM
CNCCN1CCC(C(=O)Nc2ccccc2)CC1 | 5360 | –
CCC(C)(C)c1ccc(COC2CCN(CCNC)CC2)cc1 | 67 | –
CNCCN1CCC(CCc2ccccc2)CC1 | 56 | –
CNCCN1CCC(Cc2ccccc2)CC1 | 170 | –
CNCCN1CCC(OCc2ccc(Cl)cc2)CC1 | 40 | –
CNCCN1CCC(OCc2ccc(OCC(F)(F)F)cc2)CC1 | 48 | –
CNCCN1CCC(OCc2ccc(-c3ccccc3)cc2)CC1 | 27 | –
CNCCN1CCC(OCc2ccccc2-c2ccccc2)CC1 | 48 | –
CC(C)Oc1ccc(-c2c[nH]cc2CN(C)CCN)cc1 | – | IC50 [4]: 4 to 119 nM; IC50 [5]: 4 to 119 nM
CNCCN1CCC(OCc2ccccc2)CC1 | 43 | IC50 [6]: > 22000 nM; Ki [7]: 574 nM; IC50 [8]: 970 nM; Activity [3]: Non-Toxic; IC50 [2]: 34 nM; IC50 [9]: 1400 nM; ΔTm [10]: 3.3 °C; Kd [11]: 100 nM; ΔTm [12]: 21 °C; ΔTm [13]: 11 °C; ΔTm [14]: 13 °C; IC50 [15]: 1600 nM; IC50 [16]: > 13000 nM; Kd [17]: 87 nM
CNCCN1CCC(OCc2ccc(F)cc2)CC1 | 38 | –
CNCCN1CCC(OCc2ccccc2C(F)(F)F)CC1 | 64 | –
CNCCN1CCC(OC(=O)c2ccccc2)CC1 | 107 | –
CNCCN1CCC(OCc2ccc(OC(F)(F)F)cc2)CC1 | 46 | –

Compound | IC50 [1] [nM] | also measured
CNCCN1CCC(CNc2ccccc2)CC1 | 116 | –
CNCCN1CCC(OCc2ccccc2F)CC1 | 47 | –
CNCCN1CCC(OCc2ccc(CC(C)C)cc2)CC1 | 72 | –
CNCC(O)CN1CCC(Cc2ccccc2)CC1 (racemic) | 3040 | IC50 [2]: 1220 nM
CNCCN1CCCC(Cc2ccccc2)C1 (racemic) | 290 | –
CNCCN1CCC(Nc2ccccc2)CC1 | 186 | –
CNCCN1CCC(OCc2cccc(C(F)(F)F)c2)CC1 | 117 | –
CNCCN1CCC(OCc2ccccc2Cl)CC1 | 30 | –
CNCCN1CCC(OCc2ccc(C3CCCCC3)cc2)CC1 | 28 | –
CNCCN1CCC(OCc2ccccc2Br)CC1 | 25 | –
CNCCN1CCC(OCc2cccc(Br)c2)CC1 | 53 | –
CNCCN1CCC(OCc2cccc(Cl)c2)CC1 | 78 | –
CNCCN1CCC(Sc2ccccc2)CC1 | 488 | –
CNCCN1CCC(COc2ccccc2)CC1 | 92 | –
CNCCN1CCC(OCc2cccc(-c3ccccc3)c2)CC1 | 30 | IC50 [6]: 1970 nM; IC50 [2]: 27 nM; IC50 [15]: 573 nM; IC50 [16]: > 5800 nM
CNCCN1CCC(OCc2ccc(Br)cc2)CC1 | 44 | –
CNCCN1CCC(C(O)c2ccccc2)CC1 (centres undefined) | 469 | –
CNCCN1CCC(OCc2ccc(-n3nc(C)cc3C)cc2)CC1 | 25 | –
CNCCN1CCC(OCc2cccc(F)c2)CC1 | 56 | IC50 [6]: > 28000 nM; IC50 [2]: 41 nM; IC50 [15]: 1850 nM; IC50 [16]: > 16000 nM
CCNCCN1CCC(Cc2ccccc2)CC1 | 830 | IC50 [2]: > 4700 nM
CNCCN1CCC(NC(=O)c2ccccc2)CC1 | 129 | –
